Reference: paper PMC6273394, “Discovery of a New Class of Sortase A Transpeptidase Inhibitors to Tackle Gram-Positive Pathogens: 2-(2-Phenylhydrazinylidene)alkanoic Acids and Related Derivatives” (Molecules, 2016)
Where two headings read alike, the source gives them in different places.

Experiments:
S. aureus SrtA = S. aureus SrtA (Staphylococcus aureus, UniProt Q2FV99); assay: biochemical
S. aureus ATCC 25923 = assay: Interference with biofilm formation assay (safranin method); format: cell-based; details: 100 µM compound, 24 h at 37 °C; for inhibition at 100 µM: Staphylococcus aureus, ATCC25923, 24 h, read-out: Percentages of Inhibition of Biofilm Formation S. aureus 25923
Experimental: (§1) The reference strains S. aureus ATCC 29213, S. aureus ATCC 25923, S. aureus ATCC 6538 and S. epidermidis RP62A were used in the assays.
(§2) The staphylococcal strains were tested for their ability to form biofilms. Briefly, bacteria were grown in TSB containing 2% glucose overnight at 37 °C in a shaking bath and then diluted 1:200 to a suspension with optical density (OD) of about 0.040 at 570 nm. Polystyrene 24-well tissue culture plates were filled with 1 mL of diluted suspension and incubated for 24 h at 37 °C. The wells were then washed three times with 1 mL of sterile phosphate-buffered saline (PBS) and stained with 1 mL of safranin 0.1% v/v for 1 min. The excess stain was removed by placing the plates under running tap water. Plates were dried overnight in an inverted position at 37 °C. Safranin-stained adherent bacteria in each well were re-dissolved to homogeneity in 1 mL of 30% v/v glacial acetic acid, and the OD was read at 492 nm. Each assay was performed in triplicate and repeated at least twice.
(§3) The procedure described above was used to evaluate the activity of phenyl-hydrazinylidene-derivatives in the prevention of biofilm formation. Polystyrene 24-well tissue culture plates were filled with 1 mL of diluted bacterial suspension, obtained and diluted as previously described, and a concentration of 100 µM of each compound was directly added to the bacterial suspension at time zero and incubated at 37 °C for 24 h. The wells were then washed and stained with safranin as per the biofilm forming assay. By comparing the average optical density (O.D.) of the growth control wells with the sample wells, the following formula was used to calculate the percentages of inhibition for each concentration of the sample: (2) Inhibition (%)=OD growth control−OD sample/OD growth control×100
(§4) Each assay was performed in triplicate and assays were repeated at least twice.

S. aureus ATCC 29213 = assay: as above; format: cell-based; details: 100 µM compound, 24 h at 37 °C; for inhibition at 100 µM: Staphylococcus aureus, ATCC29213, 24 h, read-out: Percentages of Inhibition of Biofilm Formation S. aureus 29213
Experimental: as §1, §2, §3, §4

S. aureus ATCC 6538 = assay: as above; format: cell-based; details: 100 µM compound, 24 h at 37 °C; for inhibition at 100 µM: Staphylococcus aureus, ATCC6538, 24 h, read-out: Percentages of Inhibition of Biofilm Formation S. aureus 6538
Experimental: as §1, §2, §3, §4

S. epidermidis RP62A = assay: as above; format: cell-based; details: 100 µM compound, 24 h at 37 °C; for inhibition at 100 µM: Staphylococcus epidermidis, RP62A, 24 h, read-out: Percentages of Inhibition of Biofilm Formation S. epidermidis RP62A
Experimental: as §1, §2, §3, §4

S. aureus SrtA, sequence (Q2FV99 60-206): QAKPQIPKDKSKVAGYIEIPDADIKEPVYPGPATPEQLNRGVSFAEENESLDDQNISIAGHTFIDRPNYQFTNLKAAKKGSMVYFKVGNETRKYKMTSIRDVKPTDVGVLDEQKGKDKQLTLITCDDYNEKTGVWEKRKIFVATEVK

Structure (SMILES)	IC50 (S. aureus SrtA)	melting point	inhibition at 100 µM (S. aureus ATCC 25923)	inhibition at 100 µM (S. aureus ATCC 29213)	inhibition at 100 µM (S. aureus ATCC 6538)	inhibition at 100 µM (S. epidermidis RP62A)	also measured
CCOC(=O)/C(=N\Nc1ccc([N+](=O)[O-])cc1)C(C)=O [Compound 1d, Ethyl (2Z)-3-Oxo-2(2-(4-nitrophenyl)hydrazinylidene)butanoate]	100 µM	120 to 122 °C					
O=C(O)/C(=N\Nc1ccc(Cl)c(Cl)c1)C(=O)c1ccccc1 [Compound 5h, (2Z)-3-Oxo-2-(2-(3,4-dichlorophenyl)hydrazinylidene)-3-phenylpropanoic acid]	100 µM	202 to 204 °C	55.9 ± 2.6%	42.7 ± 3.7%	70.1 ± 2.1%	45.4 ± 1.6%	
C=CS(=O)(=O)c1ccccc1 [PVS, Phenyl vinyl sulfone, reference compound]							IC50 (S. aureus SrtA; 10 µM S. aureus sortase A, preincubated 1 h at 37 °C, 50 µM dabcyl-QALPETGEE-edans substrate, read-out: IC50 (activity as sortase A inhibitors)): 736 µM
CCOC(=O)/C(=N\Nc1ccccc1)C(=O)c1ccccc1 [Compound 1g, Ethyl (2Z)-3-Oxo-3-phenyl-2-(2-phenylhydrazinylidene)propanoate]							IC50 (S. aureus SrtA; read-out: IC50 (activity as sortase A inhibitors), 10 µM S. aureus sortase A, preincubated 1 h at 37 °C, 50 µM dabcyl-QALPETGEE-edans substrate): > 500 µM
CC(=O)/C(=N/Nc1ccc([N+](=O)[O-])cc1)C(=O)O [Compound 5d, (2Z)-3-Oxo-2-(2-(4-nitrophenyl)hydrazinylidene)butanoic acid]	57 µM		45.3 ± 1.7%	73.7 ± 0.8%	53.6 ± 1.8%	48.6 ± 1.6%	
CCOC(=O)/C(=N/Nc1cc(OC)c(OC)c(OC)c1)C(C)=O [Compound 1e, Ethyl (2E)-3-Oxo-2-(2-(3,4,5-trimethoxyphenyl)hydrazinylidene)butanoate]	110 µM	78 to 80 °C					
CCOC(=O)/C(=N/Nc1ccccc1)C(C)=O [Compound 1a, Ethyl (2E)-3-Oxo-2-(2-phenylhydrazinylidene)butanoate]	192 µM	78 to 80 °C					
CC(=O)/C(=N/Nc1ccccc1)C(N)=O [Compound 7a, (2Z)-3-Oxo-2-(2-phenylhydrazinylidene)butanamide]	120 µM	134 to 136 °C	42.1 ± 1.8%	48.2 ± 2.9%	42.8 ± 1.1%	45.9 ± 2.1%	
CCOC(=O)/C(=N\Nc1ccc(Cl)c(Cl)c1)C(=O)c1ccccc1		96 to 98 °C					
CC(=O)/C(=N/Nc1ccccc1)C(=O)O [Compound 5a, (2Z)-3-Oxo-2-(2-phenylhydrazinylidene)butanoic acid]	80 µM		~60%	~60%	~60%	~60%	Percentages of Inhibition of Biofilm Formation S. aureus 25923 (S. aureus ATCC 25923; 100 µM): 68.3 ± 2.0%; Percentages of Inhibition of Biofilm Formation S. aureus 29213 (S. aureus ATCC 29213; 100 µM): 62.3 ± 1.5%; Percentages of Inhibition of Biofilm Formation S. aureus 6538 (S. aureus ATCC 6538; 100 µM): 60.1 ± 1.7%; Percentages of Inhibition of Biofilm Formation S. epidermidis RP62A (S. epidermidis RP62A; 100 µM): 61.5 ± 1.2%
CC(=O)/C(=N/Nc1ccc(C)cc1)C(=O)O [Compound 5f, (2Z)-3-Oxo-2-(2-(4-methylphenyl)hydrazinylidene)butanoic acid]	100 µM		33.8 ± 2.7%	40.8 ± 2.1%	40.3 ± 1.9%	24.4 ± 0.9%	
CCOC(=O)/C(=N/Nc1ccc(C)cc1)C(C)=O [Compound 1f, Ethyl (2E)-3-Oxo-2-(2-(4-methylphenyl)hydrazinylidene)butanoate]	> 500 µM						
CC(=O)/C(C#N)=N/Nc1ccccc1 [Compound 6a, (2E)-3-Oxo-2-(2-phenylhydrazinylidene)butanenitrile]	80 µM		45.1 ± 2.9%	46.2 ± 2.3%	51 ± 0.9%	34.8 ± 1.8%	
CCOC(=O)/C(=N/Nc1cccc(Cl)c1)C(C)=O [Compound 1c, Ethyl (2E)-3-Oxo-2(2-(3-chlorophenyl)hydrazinylidene)butanoate]	> 500 µM	70 to 72 °C					
COc1cc(N/N=C(/C(C)=O)C(=O)O)cc(OC)c1OC [Compound 5e, (2Z)-3-Oxo-2-(2-(3,4,5-trimethoxyphenyl)hydrazinylidene)butanoic acid]	92 µM	150 to 152 °C	28.8 ± 2.9%	34.8 ± 1.3%	48.2 ± 0.9%	27.1 ± 1.2%	
COc1ccc2cc3[n+](cc2c1OC)CCc1cc2c(cc1-3)OCO2 [BC, Berberine chloride, reference compound]	120 µM						
O=C(O)/C(=N\Nc1ccccc1)C(=O)c1ccccc1 [Compound 5g, (2Z)-3-Oxo-3-phenyl-2-(2-phenylhydrazinylidene)propanoic acid]	98 µM	136 to 138 °C	36.8 ± 2.1%	36.9 ± 1.2%	41.9 ± 1.7%	23.7 ± 0.7%	
CC(=O)/C(=N/Nc1ccc(Cl)c(Cl)c1)C(=O)O [Compound 5b, (2Z)-3-Oxo-2-(2-(3,4-dichlorophenyl)hydrazinylidene)butanoic acid]	50 µM		39.2 ± 1.4%	71.3 ± 6.4%	22 ± 0.9%	29.1 ± 1.4%	
CC(=O)/C(=N/Nc1cccc(Cl)c1)C(=O)O [Compound 5c, (2Z)-3-Oxo-2-(2-(3-chlorophenyl)hydrazinylidene)butanoic acid]	87 µM		41.1 ± 0.7%	69 ± 4.6%	30.3 ± 0.4%	22.9 ± 1.3%	
CN(C)CCC(=O)c1ccc(Cl)c(Cl)c1 [DPDAP, 1-(3,4-dichlorophenyl)-3-dimethylamino-1-propanone, reference compound]	10 µM						
CCOC(=O)/C(=N/Nc1ccc(Cl)c(Cl)c1)C(C)=O [Compound 1b, Ethyl (2E)-3-Oxo-2-(2-(3,4-dichlorophenyl)hydrazinylidene)butanoate]	> 500 µM	100 to 102 °C					
